From PMC11596630 (Molecules, 2024)
Like-named read-outs stand apart in the source and are kept apart here.

What was measured:
recombinant human AChE = target: T1, recombinant human AChE (Homo sapiens, UniProt P22303); experiment: Inhibition of human AChE (Ellman method, Hunter–Downs Ki); format: biochemical; settings: for Ki: human AChE, Ki ± SE, at least three experiments, ATCh substrate; for SI = Ki(BChE)/Ki(AChE): selectivity index, AChE over BChE
T1 construct: gift of Dr Florian Nachon, Armed Forces Biomedical Research Institute, Brétigny-sur-Orge, France
Protocol: (§1) Acetylthiocholine (ATCh) and 5,5’-dithiobis(2-nitrobenzoic acid) (DTNB) were purchased from Sigma Chemical Co., St. Louis, MO, USA. ATCh was dissolved in water and DTNB in 0.1 M sodium phosphate buffer (pH 7.4). […] Purified human BChE and recombinant human AChE were kindly provided by Dr Florian Nachon (Département de Toxicologie, Armed Forces Biomedical Research Institute, Brétigny-sur-Orge, France). The enzymes were diluted in a phosphate sodium buffer 0.1 M (pH 7.4) containing 0.01% BSA.
(§2) Cholinesterase activity measurements, evaluation of Ki (dissociation constants of enzyme−inhibitor complex) and Ks constants (dissociation constants of enzyme−substrate complex) were performed following procedures described previously. Briefly, enzyme activity was measured spectrophotometrically using a slightly modified Ellman method. […] At least three concentrations of inhibitors for each substrate concentration were used in at least three experiments.
(§3) The y-intercept determines the enzyme–inhibitor dissociation constants (Ki), while the x-intercept determines the enzyme–substrate dissociation constant, KS [57].

purified human BChE = target: T2, purified human BChE (Homo sapiens, UniProt P06276); experiment: biochemical; format: biochemical; settings: for Ki: human BChE, Ki ± SE, at least three experiments, ATCh substrate
T2 construct: gift of Dr Florian Nachon, Armed Forces Biomedical Research Institute, Brétigny-sur-Orge, France
Protocol: as §1, §2, §3

[1] = Cytotoxicity MTS assay, HEK293; format: cell-based; settings: 24 h exposure
Protocol: (§4) The human hepatocyte carcinoma HepG2 (ECACC 85011430), human embryo kidney HEK293 (ECACC 85120602) and human neuroblastoma SH-SY5Y (ECACC 94030304) cell lines were obtained from the certified cell-bank European Collection of Authenticated Cell Cultures (ECACC) through Sigma-Aldrich (Steinheim, Germany). HepG2 and HEK293 cells were grown in EMEM and SH-SY5Y in DMEM-F12, as described previously, and cell cultivation and maintenance were conducted according to standard protocol. All media and supplements were purchased from Sigma-Aldrich, Steinheim, Germany.
(§5) The cytotoxic profiles of tested compounds were determined by measuring the succinate dehydrogenase mitochondrial activity of exposed cells. The commercially available MTS detection reagent assay (CellTiter 96® AQueous One Solution Cell Proliferation Assay, Promega, Madison, WI, USA) was used. The procedure followed a previously described protocol. Cells were exposed to compounds in a concentration range of 0.01–1000 µM for 24 h. DMSO (20%) was used as positive control to validate the method. After desired time of incubation at 37 °C in a 5% CO2 atmosphere, cells were washed with PBS buffer and 100 µL of EMEM or DMEM medium and 20 µL of MTS were added in each well, incubated up to 1 h after which the absorbance was read at 492 nm on an Infinite M200PRO plate reader (Tecan Austria GmbH, Salzburg, Austria). Data are presented as percentages of the inhibited cells to control untreated cells, i.e., the percentage of cytotoxicity.

[2] = Cytotoxicity MTS assay, HepG2; format: cell-based; settings: 24 h exposure
Protocol: as §4, §5

[3] = Cytotoxicity MTS assay, SH-SY5Y; format: cell-based; settings: 24 h exposure
Protocol: HepG2 and HEK293 cells were grown in EMEM and SH-SY5Y in DMEM-F12, as described previously, and cell cultivation and maintenance were conducted according to standard protocol. All media and supplements were purchased from Sigma-Aldrich, Steinheim, Germany.
as §5

[4] = system: HepG2, HEK293 and SH-SY5Y; experiment: Cytotoxicity MTS assay, over all three cell lines; format: cell-based, human; settings: 24 h exposure
Protocol: as §4, §5

[5] = FRAP assay (ferric reducing antioxidant power); settings: 10 µM compound
Protocol: The in vitro antioxidant activity of tested compounds was evaluated using the FRAP assay following a procedure described earlier. […] Trolox and butylated hydroxytoluene (BHT) were used as standard antioxidants. The absorbance was recorded at 593 nm using a microplate reader (SpectraMax iD3, Molecular Devices, San Jose, CA, USA) against a blank. All measurements were taken in three independent triplicates in at least three independent experiments. FRAP values, denominating the reduction of ferric-tripyridyltriazine (Fe^3+-TPTZ) to ferrous tripyridyltriazine (Fe^2+-TPTZ) by the tested compounds, were calculated on the basis of a standard curve obtained using […].

[6] = Cytotoxicity MTS assay, over all three cell lines; format: cell-based, human; settings: human, HEK293 and SH-SY5Y cells; HepG2, HEK293, SH-SY5Y; 24 h exposure
Protocol: as §4, §5

[7] = human, SH-SY5Y cells, IC50 ± SE

T2 sequence (P06276 29-602): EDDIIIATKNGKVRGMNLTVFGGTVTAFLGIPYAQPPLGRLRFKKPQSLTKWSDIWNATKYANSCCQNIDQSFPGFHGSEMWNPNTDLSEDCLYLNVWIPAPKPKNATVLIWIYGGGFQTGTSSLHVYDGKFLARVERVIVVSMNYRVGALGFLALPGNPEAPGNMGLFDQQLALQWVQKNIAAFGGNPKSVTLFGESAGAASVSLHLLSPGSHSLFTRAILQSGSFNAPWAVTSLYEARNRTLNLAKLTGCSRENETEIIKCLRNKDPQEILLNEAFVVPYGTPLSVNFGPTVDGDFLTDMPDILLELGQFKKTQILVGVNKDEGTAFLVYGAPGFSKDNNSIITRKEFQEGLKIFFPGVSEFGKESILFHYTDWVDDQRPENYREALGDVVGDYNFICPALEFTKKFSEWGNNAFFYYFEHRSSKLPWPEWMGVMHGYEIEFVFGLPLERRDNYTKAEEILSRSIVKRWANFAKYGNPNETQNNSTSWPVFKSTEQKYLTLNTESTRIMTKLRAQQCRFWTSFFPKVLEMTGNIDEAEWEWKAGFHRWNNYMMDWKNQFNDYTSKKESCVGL
T1 sequence (P22303 32-614): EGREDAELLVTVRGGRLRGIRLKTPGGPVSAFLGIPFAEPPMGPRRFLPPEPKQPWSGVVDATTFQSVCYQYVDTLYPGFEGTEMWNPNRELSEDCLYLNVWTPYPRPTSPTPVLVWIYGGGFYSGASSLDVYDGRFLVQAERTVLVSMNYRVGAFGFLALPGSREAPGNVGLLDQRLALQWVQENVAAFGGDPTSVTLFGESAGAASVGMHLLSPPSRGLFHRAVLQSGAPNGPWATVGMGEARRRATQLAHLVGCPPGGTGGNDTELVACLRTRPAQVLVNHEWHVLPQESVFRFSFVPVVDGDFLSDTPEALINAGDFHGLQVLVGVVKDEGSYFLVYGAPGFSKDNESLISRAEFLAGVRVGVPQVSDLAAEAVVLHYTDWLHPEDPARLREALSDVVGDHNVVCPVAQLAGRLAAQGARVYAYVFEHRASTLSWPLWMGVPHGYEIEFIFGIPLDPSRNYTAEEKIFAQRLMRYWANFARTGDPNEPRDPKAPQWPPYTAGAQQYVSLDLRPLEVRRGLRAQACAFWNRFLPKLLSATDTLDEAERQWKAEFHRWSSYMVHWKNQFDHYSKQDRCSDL

Row | Structure (SMILES) | Ki (recombinant human AChE) | SI = Ki(BChE)/Ki(AChE) (recombinant human AChE) | Ki (purified human BChE; read-out: Ki BChE) | IC50 at 24 h ([1]; human, HEK293 cells, in mM) | IC50 at 24 h ([2]; human, HepG2 cells, in mM) | IC50 at 24 h ([3]; human, SH-SY5Y cells, in mM) | Toxicity to any tested cell type [4] | FRAP value / reducing power compared with Trolox and BHT [5] | FRAP value relative to the FRAP value for BHT [5] | IC50 at 24 h ([1]; human, HEK293 cells, IC50 ± SE) | IC50 at 24 h ([2]; human, HepG2 cells, IC50 ± SE) | IC50 at 24 h [3, 7] | AChE inhibition potency, times lower compared to 2 (recombinant human AChE; fold, compared to compound 2) | Selectivity to BChE (purified human BChE; BChE over AChE) | Ki (purified human BChE; Ki BChE) | IC50 at 24 h ([1]; in mM) | IC50 at 24 h ([2]; in mM) | IC50 at 24 h ([3]; IC50 ± SE) | IC50 at 24 h [6]
1 | CCN(CC)Cc1cc(Nc2ccnc3cc(C(F)(F)F)ccc23)ccc1O [Compound 2] | 75 ± 3 nM | 97 | 7.3 ± 0.8 µM | ≥ 1 mM | ≥ 1 mM | ≥ 1 mM | not toxic to any tested cell type |  |  |  |  |  |  |  |  |  |  |  | 
2 | CCN(CC)Cc1cc(Nc2ccnc3cc(OC)ccc23)ccc1O [Compound 5] | 25 ± 1 nM | 300 | 7.6 ± 0.4 µM |  |  |  |  | not more than 50% lower than those of either Trolox or BHT | higher than 50% | 0.037 ± 0.011 mM | 0.1 ± 0.01 mM | 0.036 ± 0.005 mM |  |  |  |  |  |  | 
3 | CCN(CC)Cc1cc(Nc2ccnc3ccc(C#N)cc23)ccc1O [Compound 12] | 190 ± 10 nM |  | 21 ± 1 µM |  |  |  |  |  |  | 0.088 ± 0.031 mM | 0.276 ± 0.046 mM | 0.092 ± 0.017 mM |  |  |  |  |  |  | 
4 | CCN(CC)Cc1cc(Nc2cc(C(F)(F)F)nc3ccccc23)ccc1O [Compound 11] | 7600 ± 300 nM | 0.22 | 1.7 ± 0.1 µM |  |  |  |  | not more than 50% lower than those of either Trolox or BHT |  | 0.025 ± 0.004 mM | 0.232 ± 0.068 mM | 0.035 ± 0.005 mM | 100 | about five times more selective to BChE |  |  |  |  | 
5 | CCN(CC)Cc1cc(Nc2ccnc3cc([N+](=O)[O-])ccc23)ccc1O [Compound 4] | 84 ± 3 nM |  | 14 ± 1 µM |  |  |  |  |  |  | 0.033 ± 0.003 mM | 0.039 ± 0.006 mM | 0.026 ± 0.004 mM |  |  |  |  |  |  | 
6 | CCN(CC)Cc1cc(Nc2ccnc3cc(Cl)ccc23)ccc1O [AMQ, Amodiaquine, reference compound] | 46 ± 1 nM |  |  |  |  |  |  |  |  |  |  |  |  |  | 9.1 ± 0.7 µM | ≥ 1 mM | ≥ 1 mM | 0.134 ± 0.036 mM | 
7 | CCN(CC)Cc1cc(Nc2ccnc3cc(F)ccc23)ccc1O [Compound 1] | 170 ± 10 nM | 77 | 13 ± 1 µM |  |  |  |  | not more than 50% lower than those of either Trolox or BHT |  | 0.09 ± 0.022 mM | 0.219 ± 0.028 mM | 0.09 ± 0.01 mM |  |  |  |  |  |  | 
8 | CCN(CC)Cc1cc(Nc2ccnc3ccc(F)cc23)ccc1O [Compound 7] | 51 ± 2 nM |  | 11 ± 1 µM |  |  |  |  | not more than 50% lower than those of either Trolox or BHT |  | 0.159 ± 0.041 mM | 0.529 ± 0.029 mM | 0.181 ± 0.041 mM |  |  |  |  |  |  | ≥ 100 µM
9 | CCN(CC)Cc1cc(Nc2ccnc3c(C(F)(F)F)cccc23)ccc1O [Compound 10] | 1200 ± 100 nM | 17 | 20 ± 1 µM |  | ≥ 1 mM |  |  |  |  | 0.087 ± 0.033 mM |  | 0.088 ± 0.008 mM |  |  |  |  |  |  | 
10 | CCN(CC)Cc1cc(Nc2ccnc3ccccc23)ccc1O [Compound 6] | 230 ± 10 nM | 26 | 5.9 ± 0.8 µM |  | ≥ 1 mM |  |  |  | higher than 50% | 0.35 ± 0.04 mM |  | 0.453 ± 0.012 mM |  |  |  |  |  |  | ≥ 100 µM
11 | CCN(CC)Cc1cc(Nc2ccnc3cccc(C(=O)O)c23)ccc1O [Compound 13] | 1300 ± 100 nM | 12 | 16 ± 1 µM |  |  |  |  |  |  | 0.103 ± 0.008 mM | 0.546 ± 0.046 mM | 0.148 ± 0.017 mM |  |  |  |  |  |  | ≥ 100 µM
12 | CCN(CC)Cc1cc(Nc2ccnc3cc(C#N)ccc23)ccc1O [Compound 3] | 78 ± 4 nM |  | 19 ± 1 µM |  |  |  |  | not more than 50% lower than those of either Trolox or BHT |  | 0.103 ± 0.003 mM | 0.471 ± 0.019 mM | 0.098 ± 0.003 mM |  |  |  |  |  |  | ≥ 100 µM
13 | CCN(CC)Cc1cc(Nc2ccnc3c(F)cccc23)ccc1O [Compound 8] | 510 ± 30 nM | 11 | 5.4 ± 0.5 µM |  | ≥ 1 mM |  |  |  |  | 0.134 ± 0.047 mM |  | 0.085 ± 0.005 mM |  |  |  |  |  |  | 
14 | CCN(CCO)Cc1cc(Nc2ccnc3cc(Cl)ccc23)ccc1O [Compound 14] | 110 nM | 62 | 6.8 ± 0.3 µM | ≥ 1 mM | ≥ 1 mM | ≥ 1 mM | not toxic to any tested cell type | greater potency than both Trolox and BHT | higher than 50% |  |  |  |  |  |  |  |  |  | ≥ 100 µM
15 | CCN(CC)Cc1cc(Nc2ccnc3ccc(C(F)(F)F)cc23)ccc1O [Compound 9] | 93 ± 3 nM |  | 14 ± 1 µM | ≥ 1 mM | ≥ 1 mM | ≥ 1 mM | not toxic to any tested cell type |  |  |  |  |  |  |  |  |  |  |  | ≥ 100 µM
